Assay results taken from the supplement of paper PMC8882468.
± gives the standard deviation of the averaged measurements.

System: HCI-011.E2 (organoid from an ER-positive breast cancer xenograft)
Experiment: CTG-3D luminescence at 96 h relative to day-0 seeding control (ratio to day 0); higher = more growth / less cytotoxicity; PDxO 3D drug screen, 96 h, CTG-3D normalised to day-0 seeding control.
Conditions: 1 µM

Compound	CTG-3D luminescence at 96 h
CC(C)(C(=O)NCC(F)(F)C(F)(F)F)C(=O)N[C@@H]1C(=O)Nc2ccccc2-c2ccccc21	1.71 ± 0.46
C=CC(=O)N1CCC[C@@H](n2nc(-c3ccc(Oc4ccccc4)cc3)c3c(N)ncnc32)C1 [ibrutinib]	2.1 ± 0.56
CNC(=O)c1cccc(-c2ccc3c(N4CCOC[C@@H]4C)nc(N4CCOC[C@@H]4C)nc3n2)c1 [vistusertib]	0.256 ± 0.0052
CCN(c1cc(C#CCN2CCOCC2)cc(C(=O)NCc2c(C)cc(C)[nH]c2=O)c1C)[C@H]1CC[C@H](N(C)CCOC)CC1	1.74 ± 0.84

Same assay, conditions: 1 µM; days in culture: 74

Compound	CTG-3D luminescence at 96 h
CC(C)(C(=O)NCC(F)(F)C(F)(F)F)C(=O)N[C@@H]1C(=O)Nc2ccccc2-c2ccccc21	1.57
C=CC(=O)N1CCC[C@@H](n2nc(-c3ccc(Oc4ccccc4)cc3)c3c(N)ncnc32)C1 [ibrutinib]	2.83
CNC(=O)c1cccc(-c2ccc3c(N4CCOC[C@@H]4C)nc(N4CCOC[C@@H]4C)nc3n2)c1 [vistusertib]	0.26
CCN(c1cc(C#CCN2CCOCC2)cc(C(=O)NCc2c(C)cc(C)[nH]c2=O)c1C)[C@H]1CC[C@H](N(C)CCOC)CC1	1.99

Same assay, conditions: 10 µM

Compound	CTG-3D luminescence at 96 h
CC(C)(C(=O)NCC(F)(F)C(F)(F)F)C(=O)N[C@@H]1C(=O)Nc2ccccc2-c2ccccc21	2.01 ± 0.5
C=CC(=O)N1CCC[C@@H](n2nc(-c3ccc(Oc4ccccc4)cc3)c3c(N)ncnc32)C1 [ibrutinib]	2.03 ± 0.32
CNC(=O)c1cccc(-c2ccc3c(N4CCOC[C@@H]4C)nc(N4CCOC[C@@H]4C)nc3n2)c1 [vistusertib]	0.212 ± 0.016
CCN(c1cc(C#CCN2CCOCC2)cc(C(=O)NCc2c(C)cc(C)[nH]c2=O)c1C)[C@H]1CC[C@H](N(C)CCOC)CC1	2.09 ± 0.45

Same assay, conditions: 10 µM; days in culture: 74

Compound	CTG-3D luminescence at 96 h
CC(C)(C(=O)NCC(F)(F)C(F)(F)F)C(=O)N[C@@H]1C(=O)Nc2ccccc2-c2ccccc21	2.5
C=CC(=O)N1CCC[C@@H](n2nc(-c3ccc(Oc4ccccc4)cc3)c3c(N)ncnc32)C1 [ibrutinib]	2.44
CNC(=O)c1cccc(-c2ccc3c(N4CCOC[C@@H]4C)nc(N4CCOC[C@@H]4C)nc3n2)c1 [vistusertib]	0.247
CCN(c1cc(C#CCN2CCOCC2)cc(C(=O)NCc2c(C)cc(C)[nH]c2=O)c1C)[C@H]1CC[C@H](N(C)CCOC)CC1	3.31

Same assay, conditions: 100 µM

Compound	CTG-3D luminescence at 96 h
CC(C)(C(=O)NCC(F)(F)C(F)(F)F)C(=O)N[C@@H]1C(=O)Nc2ccccc2-c2ccccc21	1.76 ± 0.33
C=CC(=O)N1CCC[C@@H](n2nc(-c3ccc(Oc4ccccc4)cc3)c3c(N)ncnc32)C1 [ibrutinib]	0.00409 ± 0.00037
CNC(=O)c1cccc(-c2ccc3c(N4CCOC[C@@H]4C)nc(N4CCOC[C@@H]4C)nc3n2)c1 [vistusertib]	0.057 ± 0.0028
CCN(c1cc(C#CCN2CCOCC2)cc(C(=O)NCc2c(C)cc(C)[nH]c2=O)c1C)[C@H]1CC[C@H](N(C)CCOC)CC1	2.03 ± 0.59

Same assay, conditions: 100 µM; days in culture: 74

Compound	CTG-3D luminescence at 96 h
CC(C)(C(=O)NCC(F)(F)C(F)(F)F)C(=O)N[C@@H]1C(=O)Nc2ccccc2-c2ccccc21	1.76
C=CC(=O)N1CCC[C@@H](n2nc(-c3ccc(Oc4ccccc4)cc3)c3c(N)ncnc32)C1 [ibrutinib]	0.00445
CNC(=O)c1cccc(-c2ccc3c(N4CCOC[C@@H]4C)nc(N4CCOC[C@@H]4C)nc3n2)c1 [vistusertib]	0.0598
CCN(c1cc(C#CCN2CCOCC2)cc(C(=O)NCc2c(C)cc(C)[nH]c2=O)c1C)[C@H]1CC[C@H](N(C)CCOC)CC1	2.8

Same assay, conditions: 625 fM

Compound	CTG-3D luminescence at 96 h
CC(C)(C(=O)NCC(F)(F)C(F)(F)F)C(=O)N[C@@H]1C(=O)Nc2ccccc2-c2ccccc21	1.94 ± 0.38
C=CC(=O)N1CCC[C@@H](n2nc(-c3ccc(Oc4ccccc4)cc3)c3c(N)ncnc32)C1 [ibrutinib]	1.84 ± 0.62
CNC(=O)c1cccc(-c2ccc3c(N4CCOC[C@@H]4C)nc(N4CCOC[C@@H]4C)nc3n2)c1 [vistusertib]	1.59 ± 0.38
CCN(c1cc(C#CCN2CCOCC2)cc(C(=O)NCc2c(C)cc(C)[nH]c2=O)c1C)[C@H]1CC[C@H](N(C)CCOC)CC1	1.63 ± 0.4

Same assay, conditions: 625 fM; days in culture: 74

Compound	CTG-3D luminescence at 96 h
CC(C)(C(=O)NCC(F)(F)C(F)(F)F)C(=O)N[C@@H]1C(=O)Nc2ccccc2-c2ccccc21	1.73
C=CC(=O)N1CCC[C@@H](n2nc(-c3ccc(Oc4ccccc4)cc3)c3c(N)ncnc32)C1 [ibrutinib]	2.75
CNC(=O)c1cccc(-c2ccc3c(N4CCOC[C@@H]4C)nc(N4CCOC[C@@H]4C)nc3n2)c1 [vistusertib]	2.38
CCN(c1cc(C#CCN2CCOCC2)cc(C(=O)NCc2c(C)cc(C)[nH]c2=O)c1C)[C@H]1CC[C@H](N(C)CCOC)CC1	1.61

System: HCI-017.E2 (organoid from an ER-positive breast cancer xenograft)
Experiment: as above
Conditions: 12.5 pM

Compound	CTG-3D luminescence at 96 h
CC(C)(C(=O)NCC(F)(F)C(F)(F)F)C(=O)N[C@@H]1C(=O)Nc2ccccc2-c2ccccc21	1.84 ± 0.22
C=CC(=O)N1CCC[C@@H](n2nc(-c3ccc(Oc4ccccc4)cc3)c3c(N)ncnc32)C1 [ibrutinib]	1.84 ± 0.26
CNC(=O)c1cccc(-c2ccc3c(N4CCOC[C@@H]4C)nc(N4CCOC[C@@H]4C)nc3n2)c1 [vistusertib]	1.6 ± 0.21
CCN(c1cc(C#CCN2CCOCC2)cc(C(=O)NCc2c(C)cc(C)[nH]c2=O)c1C)[C@H]1CC[C@H](N(C)CCOC)CC1	1.57 ± 0.12

Same assay, conditions: 12.5 pM; days in culture: 85

Compound	CTG-3D luminescence at 96 h
CC(C)(C(=O)NCC(F)(F)C(F)(F)F)C(=O)N[C@@H]1C(=O)Nc2ccccc2-c2ccccc21	2.5
C=CC(=O)N1CCC[C@@H](n2nc(-c3ccc(Oc4ccccc4)cc3)c3c(N)ncnc32)C1 [ibrutinib]	2.54
CNC(=O)c1cccc(-c2ccc3c(N4CCOC[C@@H]4C)nc(N4CCOC[C@@H]4C)nc3n2)c1 [vistusertib]	3.03
CCN(c1cc(C#CCN2CCOCC2)cc(C(=O)NCc2c(C)cc(C)[nH]c2=O)c1C)[C@H]1CC[C@H](N(C)CCOC)CC1	1.88

Same assay, conditions: 0.00025 µM

Compound	CTG-3D luminescence at 96 h
CC(C)(C(=O)NCC(F)(F)C(F)(F)F)C(=O)N[C@@H]1C(=O)Nc2ccccc2-c2ccccc21	2.1 ± 0.19
C=CC(=O)N1CCC[C@@H](n2nc(-c3ccc(Oc4ccccc4)cc3)c3c(N)ncnc32)C1 [ibrutinib]	2.24 ± 0.028
CNC(=O)c1cccc(-c2ccc3c(N4CCOC[C@@H]4C)nc(N4CCOC[C@@H]4C)nc3n2)c1 [vistusertib]	2.166 ± 0.018
CCN(c1cc(C#CCN2CCOCC2)cc(C(=O)NCc2c(C)cc(C)[nH]c2=O)c1C)[C@H]1CC[C@H](N(C)CCOC)CC1	1.65 ± 0.21

Same assay, conditions: 0.00025 µM; days in culture: 85

Compound	CTG-3D luminescence at 96 h
CC(C)(C(=O)NCC(F)(F)C(F)(F)F)C(=O)N[C@@H]1C(=O)Nc2ccccc2-c2ccccc21	2.8
C=CC(=O)N1CCC[C@@H](n2nc(-c3ccc(Oc4ccccc4)cc3)c3c(N)ncnc32)C1 [ibrutinib]	2.97
CNC(=O)c1cccc(-c2ccc3c(N4CCOC[C@@H]4C)nc(N4CCOC[C@@H]4C)nc3n2)c1 [vistusertib]	2.04
CCN(c1cc(C#CCN2CCOCC2)cc(C(=O)NCc2c(C)cc(C)[nH]c2=O)c1C)[C@H]1CC[C@H](N(C)CCOC)CC1	2.36

Same assay, conditions: 0.005 µM

Compound	CTG-3D luminescence at 96 h
CC(C)(C(=O)NCC(F)(F)C(F)(F)F)C(=O)N[C@@H]1C(=O)Nc2ccccc2-c2ccccc21	2.09 ± 0.6
C=CC(=O)N1CCC[C@@H](n2nc(-c3ccc(Oc4ccccc4)cc3)c3c(N)ncnc32)C1 [ibrutinib]	2.27 ± 0.054
CNC(=O)c1cccc(-c2ccc3c(N4CCOC[C@@H]4C)nc(N4CCOC[C@@H]4C)nc3n2)c1 [vistusertib]	1.94 ± 0.41
CCN(c1cc(C#CCN2CCOCC2)cc(C(=O)NCc2c(C)cc(C)[nH]c2=O)c1C)[C@H]1CC[C@H](N(C)CCOC)CC1	1.91 ± 0.021

Same assay, conditions: 0.005 µM; days in culture: 85

Compound	CTG-3D luminescence at 96 h
CC(C)(C(=O)NCC(F)(F)C(F)(F)F)C(=O)N[C@@H]1C(=O)Nc2ccccc2-c2ccccc21	2.42
C=CC(=O)N1CCC[C@@H](n2nc(-c3ccc(Oc4ccccc4)cc3)c3c(N)ncnc32)C1 [ibrutinib]	2.31
CNC(=O)c1cccc(-c2ccc3c(N4CCOC[C@@H]4C)nc(N4CCOC[C@@H]4C)nc3n2)c1 [vistusertib]	2.83
CCN(c1cc(C#CCN2CCOCC2)cc(C(=O)NCc2c(C)cc(C)[nH]c2=O)c1C)[C@H]1CC[C@H](N(C)CCOC)CC1	2.01

Same assay, conditions: 0.1 µM

Compound	CTG-3D luminescence at 96 h
CC(C)(C(=O)NCC(F)(F)C(F)(F)F)C(=O)N[C@@H]1C(=O)Nc2ccccc2-c2ccccc21	2.12 ± 0.22
C=CC(=O)N1CCC[C@@H](n2nc(-c3ccc(Oc4ccccc4)cc3)c3c(N)ncnc32)C1 [ibrutinib]	2.21 ± 0.36
CNC(=O)c1cccc(-c2ccc3c(N4CCOC[C@@H]4C)nc(N4CCOC[C@@H]4C)nc3n2)c1 [vistusertib]	1.38 ± 0.21
CCN(c1cc(C#CCN2CCOCC2)cc(C(=O)NCc2c(C)cc(C)[nH]c2=O)c1C)[C@H]1CC[C@H](N(C)CCOC)CC1	1.81 ± 0.1

Same assay, conditions: 0.1 µM; days in culture: 85

Compound	CTG-3D luminescence at 96 h
CC(C)(C(=O)NCC(F)(F)C(F)(F)F)C(=O)N[C@@H]1C(=O)Nc2ccccc2-c2ccccc21	1.44
C=CC(=O)N1CCC[C@@H](n2nc(-c3ccc(Oc4ccccc4)cc3)c3c(N)ncnc32)C1 [ibrutinib]	2.54
CNC(=O)c1cccc(-c2ccc3c(N4CCOC[C@@H]4C)nc(N4CCOC[C@@H]4C)nc3n2)c1 [vistusertib]	1.99
CCN(c1cc(C#CCN2CCOCC2)cc(C(=O)NCc2c(C)cc(C)[nH]c2=O)c1C)[C@H]1CC[C@H](N(C)CCOC)CC1	2.07
